One experiment concerns the target Vasopressin V1 receptor (Rattus norvegicus, UniProt P48974+P30560). The experiment in a line: In vivo vasopressin V1-antagonistic activity was determined by measuring the blood pressure response in rats. It is filed as functional, organism-based.
Another experiment addresses Vasopressin V2 receptor (Rattus norvegicus, UniProt Q00788). The experiment in a line: In vivo antidiuretic V2-antagonistic activity was measured as changes in urine flow in water-loaded rats and is expressed as the negative logarithm of the ''effective dose divided by the estimated volume of distribution (67 mL/kg). It is filed as functional, organism-based. The settings on record: read-out: pA2 (converted).

The nature of experiment [1]: Ratio of antidiuretic V2 effective dose to that of vasopressin V1 effective dose. The class given is functional, Urine.

*1 amine or outer side, *2 acyl side, *3 side chain or, on linkers, in order; H or OH if unused. Where a SMILES comes first, the peptide text is derived from it. Bridges are numbered along the chain shown (N, C = ends). The star is where a group is joined. Ethylenediamine = C(CN[*:2])N[*:1]; X1 = O=C(CC1(S[*:2])CCCCC1)[*:1]; X2 = CC(C)(CC(=O)[*:1])S[*:2]; NHBu = CCCCN*

Broadly, the pA2 is the negative logarithm of the molar antagonist concentration that doubles the agonist concentration needed for the same response.

Vasopressin V2 receptor, sequence (Q00788 whole entry): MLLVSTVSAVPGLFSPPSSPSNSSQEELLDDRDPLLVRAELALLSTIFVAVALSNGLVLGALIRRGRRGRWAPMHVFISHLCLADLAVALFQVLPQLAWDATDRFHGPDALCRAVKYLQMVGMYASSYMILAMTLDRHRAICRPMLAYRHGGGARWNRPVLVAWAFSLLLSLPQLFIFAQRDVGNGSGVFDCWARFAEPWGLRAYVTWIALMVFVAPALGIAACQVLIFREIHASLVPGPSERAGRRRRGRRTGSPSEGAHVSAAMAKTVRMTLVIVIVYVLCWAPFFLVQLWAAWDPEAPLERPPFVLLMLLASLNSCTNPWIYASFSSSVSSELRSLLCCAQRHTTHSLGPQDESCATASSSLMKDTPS

Turning to `COc1ccc(C[C@@H]2NC(=O)CC3(CCCCC3)SSC[C@@H](C(=O)N3CCC[C@H]3C(=O)N[C@@H](CCCN=C(N)N)C(=O)NCCN)NC(=O)[C@H](CC(N)=O)NC(=O)[C@H](CCC(N)=O)NC(=O)[C@H](Cc3ccccc3)NC2=O)cc1` (Y(Me)FQNCPR-Ethylenediamine; linker N-5 via X1) [listing 1 of 2 here], at Vasopressin V1 receptor, the pA2 is 8.75. For the same molecule, the Kb at Vasopressin V2 receptor was around 501 nM.

Take `COc1ccc(C[C@@H]2NC(=O)CC3(CCCCC3)SSC[C@@H](C(=O)N3CCC[C@H]3C(=O)N[C@@H](CCCN=C(N)N)C(=O)NCCN)NC(=O)[C@H](CC(N)=O)NC(=O)[C@H](CCC(N)=O)NC(=O)[C@H](Cc3ccccc3)NC2=O)cc1` (Y(Me)FQNCPR-Ethylenediamine; linker N-5 via X1) [listing 2 of 2 here]: in experiment [1], the Ratio was around 275.

The molecule `CNC(=O)[C@H](CCCN=C(N)N)NC(=O)[C@@H]1CCCN1C(=O)[C@@H]1CSSC2(CCCCC2)CC(=O)N[C@@H](Cc2ccc(OC)cc2)C(=O)N[C@@H](Cc2ccccc2)C(=O)N[C@@H](CCC(N)=O)C(=O)N[C@@H](CC(N)=O)C(=O)N1` (Y(Me)FQNCPR-NHMe; linker N-5 via X1) [listing 1 of 2 here] had a pA2 at Vasopressin V1 receptor of 8.73. Moreover, the Kb at Vasopressin V2 receptor was around 1260 nM.

With `CNC(=O)[C@H](CCCN=C(N)N)NC(=O)[C@@H]1CCCN1C(=O)[C@@H]1CSSC2(CCCCC2)CC(=O)N[C@@H](Cc2ccc(OC)cc2)C(=O)N[C@@H](Cc2ccccc2)C(=O)N[C@@H](CCC(N)=O)C(=O)N[C@@H](CC(N)=O)C(=O)N1` (Y(Me)FQNCPR-NHMe; linker N-5 via X1) [listing 2 of 2 here], in experiment [1], the Ratio is given as around 700.

Molecule `COc1ccc(C[C@@H]2NC(=O)CC3(CCCCC3)SSC[C@@H](C(=O)N3CCC[C@H]3C(=O)N[C@@H](CCCN=C(N)N)C(=O)N[C@@H](C)C(N)=O)NC(=O)[C@H](CC(N)=O)NC(=O)[C@H](CCC(N)=O)NC(=O)[C@H](Cc3ccccc3)NC2=O)cc1` (Y(Me)FQNCPRA-NH2; linker N-5 via X1) [listing 1 of 2 here] yielded a pA2 at Vasopressin V1 receptor of 8.75. Also, the Kb at Vasopressin V2 receptor was around 1000 nM.

Regarding `COc1ccc(C[C@@H]2NC(=O)CC3(CCCCC3)SSC[C@@H](C(=O)N3CCC[C@H]3C(=O)N[C@@H](CCCN=C(N)N)C(=O)N[C@@H](C)C(N)=O)NC(=O)[C@H](CC(N)=O)NC(=O)[C@H](CCC(N)=O)NC(=O)[C@H](Cc3ccccc3)NC2=O)cc1` (Y(Me)FQNCPRA-NH2; linker N-5 via X1) [listing 2 of 2 here], in experiment [1], the Ratio was around 590.

On to `COc1ccc(C[C@@H]2NC(=O)CC(C)(C)SSC[C@@H](C(=O)N3CCC[C@H]3C(=O)N[C@@H](CCCN=C(N)N)C(=O)N[C@@H](C)C(N)=O)NC(=O)[C@H](CC(N)=O)NC(=O)[C@H](CCC(N)=O)NC(=O)[C@H](Cc3ccccc3)NC2=O)cc1` (Y(Me)FQNCPRA-NH2; linker N-5 via X2), for which the pA2 on Vasopressin V1 receptor is 8.16.

On to `COc1ccc(C[C@@H]2NC(=O)CC3(CCCCC3)SSC[C@@H](C(=O)N3CCC[C@H]3C(=O)N[C@@H](CCCN=C(N)N)C(=O)NCC(=O)NCCN)NC(=O)[C@H](CC(N)=O)NC(=O)[C@H](CCC(N)=O)NC(=O)[C@H](Cc3ccccc3)NC2=O)cc1` (Y(Me)FQNCPRG-Ethylenediamine; linker N-5 via X1), for which the pA2 on Vasopressin V1 receptor came to 8.39. Besides, the Kb on Vasopressin V2 receptor was around 251 nM.

Molecule `COc1ccc(C[C@@H]2NC(=O)CC3(CCCCC3)SSC[C@@H](C(=O)N3CCC[C@H]3C(=O)N[C@@H](CCCN=C(N)N)C(=O)NCC(N)=O)NC(=O)[C@H](CC(N)=O)NC(=O)[C@H](CCC(N)=O)NC(=O)[C@H](Cc3ccccc3)NC2=O)cc1` (Y(Me)FQNCPRG-NH2; linker N-5 via X1) gave a pA2 at Vasopressin V1 receptor of 8.62.

For the molecule `CCCCNC(=O)CNC(=O)[C@H](CCCN=C(N)N)NC(=O)[C@@H]1CCCN1C(=O)[C@@H]1CSSC2(CCCCC2)CC(=O)N[C@@H](Cc2ccc(OC)cc2)C(=O)N[C@@H](Cc2ccccc2)C(=O)N[C@@H](CCC(N)=O)C(=O)N[C@@H](CC(N)=O)C(=O)N1` (Y(Me)FQNCPRG-NHBu; linker N-5 via X1), the pA2 on Vasopressin V1 receptor came to 8.44.

As for `COc1ccc(C[C@@H]2NC(=O)CC3(CCCCC3)SSC[C@@H](C(=O)N3CCC[C@H]3C(=O)N[C@@H](CCCN=C(N)N)C(=O)N[C@@H](CCCN=C(N)N)C(N)=O)NC(=O)[C@H](CC(N)=O)NC(=O)[C@H](CCC(N)=O)NC(=O)[C@H](Cc3ccccc3)NC2=O)cc1` (Y(Me)FQNCPRR-NH2; linker N-5 via X1), at Vasopressin V1 receptor, the pA2 was found to be 8.78. Besides, at Vasopressin V2 receptor, the Kb is around 219 nM.

`COc1ccc(C[C@@H]2NC(=O)CC(C)(C)SSC[C@@H](C(=O)N3CCC[C@H]3C(=O)N[C@@H](CCCN=C(N)N)C(=O)N[C@@H](CCCN=C(N)N)C(N)=O)NC(=O)[C@H](CC(N)=O)NC(=O)[C@H](CCC(N)=O)NC(=O)[C@H](Cc3ccccc3)NC2=O)cc1` (Y(Me)FQNCPRR-NH2; linker N-5 via X2) displayed a pA2 on Vasopressin V1 receptor of 8.52.

`COc1ccc(C[C@@H]2NC(=O)CC3(CCCCC3)SSC[C@@H](C(=O)N3CCC[C@H]3C(=O)N[C@@H](CCCN=C(N)N)C(=O)N[C@H](C(N)=O)[C@@H](C)O)NC(=O)[C@H](CC(N)=O)NC(=O)[C@H](CCC(N)=O)NC(=O)[C@H](Cc3ccccc3)NC2=O)cc1` (Y(Me)FQNCPRT-NH2; linker N-5 via X1) displayed a pA2 at Vasopressin V1 receptor of 8.49. On Vasopressin V2 receptor, the Kb is around 631 nM.

On Vasopressin V1 receptor, `COc1ccc(C[C@@H]2NC(=O)CC(C)(C)SSC[C@@H](C(=O)N3CCC[C@H]3C(=O)N[C@@H](CCCN=C(N)N)C(=O)N[C@H](C(N)=O)[C@@H](C)O)NC(=O)[C@H](CC(N)=O)NC(=O)[C@H](CCC(N)=O)NC(=O)[C@H](Cc3ccccc3)NC2=O)cc1` (Y(Me)FQNCPRT-NH2; linker N-5 via X2) gave a pA2 of 8.04.

The molecule `COc1ccc(C[C@@H]2NC(=O)CC3(CCCCC3)SSC[C@@H](C(=O)N3CCC[C@H]3C(=O)N[C@@H](CCCN=C(N)N)C(=O)N[C@H](C(N)=O)C(C)C)NC(=O)[C@H](CC(N)=O)NC(=O)[C@H](CCC(N)=O)NC(=O)[C@H](Cc3ccccc3)NC2=O)cc1` (Y(Me)FQNCPRV-NH2; linker N-5 via X1) returned a pA2 at Vasopressin V1 receptor of 8.57. The Kb on Vasopressin V2 receptor was around 1580 nM.

At Vasopressin V1 receptor, `COc1ccc(C[C@@H]2NC(=O)CC(C)(C)SSC[C@@H](C(=O)N3CCC[C@H]3C(=O)N[C@@H](CCCN=C(N)N)C(=O)N[C@H](C(N)=O)C(C)C)NC(=O)[C@H](CC(N)=O)NC(=O)[C@H](CCC(N)=O)NC(=O)[C@H](Cc3ccccc3)NC2=O)cc1` (Y(Me)FQNCPRV-NH2; linker N-5 via X2) came in with a pA2 of 8.05.

Molecule `COc1ccc(C[C@@H]2NC(=O)CC3(CCCCC3)SSC[C@@H](C(=O)N3CCC[C@H]3C(=O)N[C@@H](CCCN=C(N)N)C(=O)N[C@@H](Cc3ccc(O)cc3)C(N)=O)NC(=O)[C@H](CC(N)=O)NC(=O)[C@H](CCC(N)=O)NC(=O)[C@H](Cc3ccccc3)NC2=O)cc1` (Y(Me)FQNCPRY-NH2; linker N-5 via X1) displayed a pA2 at Vasopressin V1 receptor of 8.47. Besides, the Kb at Vasopressin V2 receptor was around 1000 nM.

`COc1ccc(C[C@@H]2NC(=O)CC(C)(C)SSC[C@@H](C(=O)N3CCC[C@H]3C(=O)N[C@@H](CCCN=C(N)N)C(=O)N[C@@H](Cc3ccc(O)cc3)C(N)=O)NC(=O)[C@H](CC(N)=O)NC(=O)[C@H](CCC(N)=O)NC(=O)[C@H](Cc3ccccc3)NC2=O)cc1` (Y(Me)FQNCPRY-NH2; linker N-5 via X2) yielded a pA2 at Vasopressin V1 receptor of 8.25.

On Vasopressin V1 receptor, `COc1ccc(C[C@@H]2NC(=O)CC(C)(C)SSC[C@@H](C(=O)N3CCC[C@H]3C(=O)N[C@@H](CCCN=C(N)N)C(=O)NCC(N)=O)NC(=O)[C@H](CC(N)=O)NC(=O)[C@H](CCC(N)=O)NC(=O)[C@H](Cc3ccccc3)NC2=O)cc1` [DP[TYR(ME)2]AVP] (Y(Me)FQNCPRG-NH2; linker N-5 via X2) returned a pA2 of 7.96.

The values above are taken from ChEMBL document CHEMBL1125295, “Synthesis and some pharmacological properties of potent and selective antagonists of the vasopressor (V1-receptor) response to arginine-vasopressin” (J Med Chem, 1992).
